# Laboratory results as given in patent publication US20230280333A1, “FOREIGN SUBSTANCE INTRODUCTION CONSTRUCT AND USE THEREOF” (TOAGOSEI CO., LTD., priority 2022, published 2023).
# Where no end group is shown, it is not given here.
# Tests used:
# [1] = system: HeLa cells; assay: Evaluation of the cell membrane permeability by flow cytometry; format: cell-based, human; details: for MFI: mean fluorescent intensity of HeLa cells, 10 μM in culture medium, 0.5% DMSO, 20 hours at 37° C., FL2 detector; for MFI compared between examples, in words / cell membrane permeability, conclusion in words: HeLa cells, 10 μM, 20 hours; for cell membrane permeability, conclusion in words: FAM-labelled constructs
# Description: The cell membrane permeability of peptides 1 to 4 was analyzed using HeLa cells (an established cell line derived from human cervical cancer cells) as the eukaryotic cells.
# HeLa cells were cultured on DMEM (Dulbecco's modified Eagle's medium (Cat. No. 043-30085, from FUJIFILM Wako Pure Chemical Corporation)) containing 10% FBS (fetal bovine serum), which is a general culture medium.
# The HeLa cells attached to the culture plate were washed with PBS, a 0.25% trypsin/EDTA solution was then added, and incubation was carried out for 3 minutes at 37° C. After this incubation, the aforementioned DMEM containing 10% FBS was added and the trypsin was inactivated, and the cells were then sedimented by carrying out centrifugal separation for 5 minutes at 150×g. The supernatant produced by the centrifugal separation was removed, and the aforementioned DMEM containing 10% FBS was added to the sediment (cell pellet) to prepare a cell suspension containing approximately 2×10^5 cells/mL. The cells were seeded (approximately 2×10^5 cells/well) by the addition of 1 mL of this cell suspension to the wells of a commercial 6-well plate (Iwaki). In addition, the 2 mM sample solution 1 was diluted with the aforementioned DMEM containing 10% FBS to prepare a sample solution 1 in which the sample 1 concentration was 20 μM. 1 mL of this 20 sample solution 1 was added to a well (i.e., the concentration of sample 1 in the culture medium in the wells was brought to 10 μM and the DMSO concentration was brought to 0.5%). The cells were subsequently incubated for 20 hours at 37° C. under the condition of 5% CO2.
# After this 20-hour incubation, the culture supernatant was removed from a well and the cells in the well were washed twice with 1 mL PBS. 200 μL of a 0.25% trypsin/EDTA solution was then added to the well and incubation was carried out for 3 minutes at 37° C. After this incubation, the trypsin was inactivated by the addition of 400 μL of the aforementioned DMEM containing 10% FBS to the well, and the cells were subsequently recovered by transferring the cell suspension in a well to a tube. The well was then washed by the further addition of 600 μL PBS to the well. The cells that had remained in the well were recovered to the tube by transferring the PBS in the well to the tube. Centrifugal separation was run on this tube for 5 minutes using conditions of 4° C. and 210×g. After the centrifugal separation, the supernatant was removed, the sediment (cell pellet) was suspended (washed) with 1 mL of PBS, and centrifugal separation was carried out using the same conditions as before. After this procedure had been performed twice, the supernatant was removed to obtain cells (cell pellet) that had been cultured on a sample 1-containing culture medium.
# The cell permeability of sample 1 was analyzed using the resulting cells (cell pellet) and a flow cytometer. An On-Chip Flow Cytometer (On-chip Biotechnologies Co., Ltd.) was used for the flow cytometer.
# For this analysis, the cell pellet obtained as described above was suspended in 50 μL PBS. To this suspension was added 50 μL of Sample Buffer 2× for use with the indicated flow cytometer to prepare a cell suspension for submission to analysis.
# Gating was performed using this flow cytometer based on forward scatter (FSC) and side scatter (SSC); the gating was set for the cell population that was the target of the analysis; and the fluorescent intensity was measured for the cell population within this gating. The analysis was performed so the cell count for this cell population reached at least 10,000 or more. The FL2 fluorescence detector (optimal detection wavelength around 543 nm) on the indicated flow cytometer, which could detect the fluorescence wavelength of FAM, was used to measure the fluorescent intensity. […]
# [2] = system: cell membrane of eukaryotic cells; assay: Cell membrane permeability stated by the inventors, no data or method shown; format: cell-based; details: detailed data not provided
# [3] = system: nucleolus; assay: Nucleolar transferability stated in the description, no method shown; format: cell-based
substance,measurement,setting,value
"5(6)-carboxyfluorescein [Example 5, reference compound]",MFI,[1],10.3
Ac-KKRTLRKKKRKKR-FAM [Example 4],MFI,[1],24.3
"Ac-KKRTLRKKKRKKRWPC-FAM (Ac-KKRTLRKKKRKKRWPC-{FAM}) [Example 2, foreign substance introduction construct provided with peptide 2, FAM bonded to the C-terminal side]","MFI compared between examples, in words",[1],significantly higher MFI than Example 4
same,MFI,[1],121
Ac-KKRTLRKSNRKKR-FAM [Example 3],MFI,[1],12.4
"Ac-KKRTLRKSNRKKRWPC-FAM (Ac-KKRTLRKSNRKKRWPC-{FAM}) [Example 1, foreign substance introduction construct provided with peptide 1, FAM bonded to the C-terminal side]","MFI compared between examples, in words",[1],"highest among Example 1, Example 3, and Example 3′"
same,MFI,[1],87.5
FAM-KKRTLRKSNRKKR-CONH2 [Example 3′],MFI,[1],62
"KKRTLRKKKRKKR (Ac-KKRTLRKKKRKKR) [Peptide 4, variant of LIM kinase 2 NoLS; synthesized with N-terminal acetylation]","cell membrane permeability, statement in words",[2],higher cell membrane permeability than peptide comprising the amino acid sequence given by SEQ ID NO: 3
same,"nucleolar transferability, in words",[3],excellent nucleolar transferability
"KKRTLRKKKRKKRWPC (Ac-KKRTLRKKKRKKRWPC) [Peptide 2, carrier peptide fragment; synthesized with N-terminal α-amino group acetylated]","cell membrane permeability, conclusion in words",[1]; listed as SEQ ID NO: 2,better cell membrane permeability than peptide composed of the amino acid sequence given by SEQ ID NO: 5
"KKRTLRKSNRKKR (Ac-KKRTLRKSNRKKR) [Peptide 3, variant of LIM kinase 2 NoLS; synthesized with N-terminal acetylation]","cell membrane permeability, statement in words",[2],higher cell membrane permeability than peptide comprising the amino acid sequence given by SEQ ID NO: 3
"KKRTLRKSNRKKRWPC (Ac-KKRTLRKSNRKKRWPC) [Peptide 1, carrier peptide fragment; synthesized with N-terminal α-amino group acetylated]","cell membrane permeability, conclusion in words",[1]; listed as SEQ ID NO: 1,better cell membrane permeability than peptide composed of the amino acid sequence given by SEQ ID NO: 4
